# From patent US20250296959A1, “B7-H3 TARGETING PEPTIDES AND CONSTRUCTS THEREOF” (Mariana Oncology Inc., priority 2024, published 2025)
# Starred links: 1 amine or outer side, 2 acyl side, 3 side chain; linkers in the order of their positions; H or OH if unused. Positions of bridges follow the written chain, without caps; N, C: chain ends. Non-standard residues stand in square brackets, D forms with d. Residues, ends and D or L forms follow the SMILES beside them. Groups on a side chain read outwards from the residue. *: point of attachment. Phe(3-CH2NH2) = O=C([C@H](Cc1cccc(CN[*:3])c1)N[*:1])[*:2]; DOTA = O=C(O)CN1CCN(CC(=O)O)CCN(CC(=O)*)CCN(CC(=O)O)CC1; X5 = O=C(O)CC1CCN(CC(=O)O)CCN(CC(=O)O)CCN(CC(=O)*)CC1; X8 = O=C([C@H](C[C@H]1CC[C@@H](O)CC1)N[*:1])[*:2]; Trp(5-F) = N[C@@H](Cc1c[nH]c2ccc(F)cc12)C(=O)O; γGlu = O=C(O)[C@H](CCC(=O)[*:2])N[*:1]; 1Nal = N[C@@H](Cc1cccc2ccccc12)C(=O)O; Ala(4-THP) = N[C@@H](CC1CCOCC1)C(=O)O; hLeu(5-Me) = CC(C)(C)CC[C@H](N)C(=O)O; Val(3-OH) = CC(C)(O)[C@H](N)C(=O)O; Tle = CC(C)(C)[C@H](N)C(=O)O; hLeu = CC(C)CC[C@H](N)C(=O)O; hSer = N[C@@H](CCO)C(=O)O; Nle = CCCC[C@H](N)C(=O)O; Sar = CNCC(=O)O
# Biological target: T1, human 4lg B7-H3 (Homo sapiens, UniProt Q5ZPR3)
# T1 sequence (Q5ZPR3 29-534): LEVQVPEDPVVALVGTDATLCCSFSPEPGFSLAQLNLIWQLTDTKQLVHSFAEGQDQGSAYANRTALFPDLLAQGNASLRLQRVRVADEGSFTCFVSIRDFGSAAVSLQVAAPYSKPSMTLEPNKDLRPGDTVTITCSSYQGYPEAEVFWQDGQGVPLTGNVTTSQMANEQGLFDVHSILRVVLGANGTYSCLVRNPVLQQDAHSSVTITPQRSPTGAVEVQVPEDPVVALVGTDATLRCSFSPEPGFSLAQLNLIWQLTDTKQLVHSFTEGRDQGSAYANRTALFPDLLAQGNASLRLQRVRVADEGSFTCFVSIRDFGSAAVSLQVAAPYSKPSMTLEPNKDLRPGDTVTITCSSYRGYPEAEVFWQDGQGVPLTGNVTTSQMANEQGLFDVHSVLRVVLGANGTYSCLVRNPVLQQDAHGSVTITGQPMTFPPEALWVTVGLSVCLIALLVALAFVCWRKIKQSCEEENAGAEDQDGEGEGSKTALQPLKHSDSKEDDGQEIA
# Assay: Affinity determination by surface plasmon resonance (SPR) to 4Ig B7-H3
# Conditions: SPR KD—25° C., 4Ig B7-H3; 25° C. flow cell temperature
row,Kd [nM],SMILES
1,1 to 10,"CCCC[C@H](NC(C)=O)C(=O)N[C@@H](Cc1ccc(O)cc1)C(=O)N[C@H]1CSSC[C@@H](C(=O)N[C@@H](Cc2c[nH]c3ccccc23)C(=O)N[C@@H](Cc2ccccc2)C(=O)N[C@H](C(=O)N[C@H](CCCCNC(=O)CN2CCC(CC(=O)O)CCN(CC(=O)O)CCN(CC(=O)O)CC2)C(N)=O)[C@@H](C)O)NC(=O)[C@H](Cc2ccc(O)cc2)NC(=O)[C@H](C(C)C)NC(=O)[C@H](CC(=O)O)NC(=O)[C@H](Cc2ccc(O)cc2)NC(=O)[C@H](CCCCN)NC(=O)CNC(=O)[C@H](C(C)C)NC1=O (stereo partly drawn) [Cpd #27, Ac-Nle-Y-C-V-G-K-Y-D-V-Y-C-W-F-Thr-dLys(DOTA)-CONH2] (Ac-[Nle]YCVGKYDVYCWFT[dK](X5)-NH2; disulfide 3-11)"
2,1 to 10,"CC(=O)N[C@@H](CCC(C)C)C(=O)N[C@@H](Cc1ccc(O)cc1)C(=O)N[C@H]1CSSC[C@@H](C(=O)N[C@@H](Cc2c[nH]c3ccc(F)cc23)C(=O)N[C@H](C(=O)N[C@H](C(=O)N[C@H](CCCCNC(=O)CN2CCN(CC(=O)O)CCN(CC(=O)O)CCN(CC(=O)O)CC2)C(=O)O)[C@@H](C)O)C(C)(C)C)NC(=O)[C@H](Cc2ccc(O)cc2)NC(=O)[C@H](C(C)C)NC(=O)[C@H](CC(=O)O)NC(=O)[C@H](CC2CCOCC2)NC(=O)[C@H](CCCCN)NC(=O)CNC(=O)[C@H](C(C)(C)C)NC1=O [compound 335, Ac-hLeu-Y-C-Tbg-G-K-ThpA-D-V-Y-C-5FW-Tbg-Thr-dLys(DOTA)-COOH] (Ac-[hLeu]YC[Tle]GK[Ala(4-THP)]DVYC[Trp(5-F)][Tle]T[dK](DOTA)-OH; disulfide 3-11)"
3,1 to 10,"CCCC[C@@H]1NC(=O)[C@@H](NC(=O)[C@H](Cc2ccc(O)cc2)NC(=O)[C@H](CCC(C)C)NC(C)=O)CSSC[C@@H](C(=O)N[C@@H](Cc2c[nH]c3ccc(F)cc23)C(=O)N[C@@H](Cc2ccccc2)C(=O)N[C@H](C(=O)N[C@H](CCCCNC(=O)CN2CCN(CC(=O)O)CCN(CC(=O)O)CCN(CC(=O)O)CC2)C(N)=O)[C@@H](C)O)NC(=O)[C@H](Cc2ccc(O)cc2)NC(=O)[C@H](C(C)C)NC(=O)[C@H](CC(=O)O)NC(=O)[C@H](Cc2ccc(O)cc2)NC(=O)[C@H](CCCCN)NC(=O)CNC1=O [compound 217, Ac-hLeu-Y-C-Nle-G-K-Y-D-V-Y-C-5FW-F-Thr-dLys(DOTA)-CONH2] (Ac-[hLeu]YC[Nle]GKYDVYC[Trp(5-F)]FT[dK](DOTA)-NH2; disulfide 3-11)"
4,1 to 10,"CC(=O)N[C@@H](CCC(C)C)C(=O)N[C@@H](Cc1ccc(O)cc1)C(=O)N[C@H]1CSSC[C@@H](C(=O)N[C@@H](Cc2c[nH]c3ccccc23)C(=O)N[C@@H](Cc2ccccc2)C(=O)N[C@H](C(=O)N[C@H](CCCCNC(=O)CN2CCN(CC(=O)O)CCN(CC(=O)O)CCN(CC(=O)O)CC2)C(N)=O)[C@@H](C)O)NC(=O)[C@H](Cc2ccc(O)cc2)NC(=O)[C@H](C(C)C)NC(=O)[C@H](CC(=O)O)NC(=O)[C@H](Cc2ccc(O)cc2)NC(=O)[C@H](CCCCN)NC(=O)CN(C)C(=O)[C@H](C(C)(C)C)NC1=O [compound 75, Ac-hLeu-Y-C-Tbg-Sar-K-Y-D-V-Y-C-W-F-Thr-dLys(DOTA)-CONH2] (Ac-[hLeu]YC[Tle][Sar]KYDVYCWFT[dK](DOTA)-NH2; disulfide 3-11)"
5,1 to 10,"CC(=O)N[C@@H](CCC(C)C)C(=O)N[C@@H](Cc1ccc(O)cc1)C(=O)N[C@H]1CSSC[C@@H](C(=O)N[C@@H](Cc2cccc3ccccc23)C(=O)N[C@@H](Cc2ccccc2)C(=O)N2CCC[C@H]2C(N)=O)NC(=O)[C@H](Cc2ccc(O)cc2)NC(=O)[C@H](C(C)C)NC(=O)[C@H](CC(=O)O)NC(=O)[C@H](Cc2cccc(CNC(=O)CC[C@H](NC(=O)CC[C@H](NC(=O)CN3CCN(CC(=O)O)CCN(CC(=O)O)CCN(CC(=O)O)CC3)C(=O)O)C(=O)O)c2)NC(=O)[C@H](CCCCN)NC(=O)CNC(=O)[C@H](C(C)(C)C)NC1=O [compound 255, Ac-hLeu-Y-C-Tbg-G-K-MAF(gE-gE-DOTA)-D-V-Y-C-1Nal-F-Pro-CONH2] (Ac-[hLeu]YC[Tle]GK[Phe(3-CH2NH2)]([γGlu-γGlu-DOTA])DVYC[1Nal]FP-NH2; disulfide 3-11)"

# Same assay, conditions: SPR KD—37° C., 4Ig B7-H3; 37° C. flow cell temperature
row,Kd [nM],SMILES
1,1 to 10,"CCCC[C@H](NC(C)=O)C(=O)N[C@@H](Cc1ccc(O)cc1)C(=O)N[C@H]1CSSC[C@@H](C(=O)N[C@@H](Cc2c[nH]c3ccccc23)C(=O)N[C@@H](Cc2ccccc2)C(=O)N[C@H](C(=O)N[C@H](CCCCNC(=O)CN2CCC(CC(=O)O)CCN(CC(=O)O)CCN(CC(=O)O)CC2)C(N)=O)[C@@H](C)O)NC(=O)[C@H](Cc2ccc(O)cc2)NC(=O)[C@H](C(C)C)NC(=O)[C@H](CC(=O)O)NC(=O)[C@H](Cc2ccc(O)cc2)NC(=O)[C@H](CCCCN)NC(=O)CNC(=O)[C@H](C(C)C)NC1=O (stereo partly drawn) [Cpd #27, Ac-Nle-Y-C-V-G-K-Y-D-V-Y-C-W-F-Thr-dLys(DOTA)-CONH2] (Ac-[Nle]YCVGKYDVYCWFT[dK](X5)-NH2; disulfide 3-11)"
2,1 to 10,"CC(=O)N[C@@H](CCC(C)C)C(=O)N[C@@H](Cc1ccc(O)cc1)C(=O)N[C@H]1CSSC[C@@H](C(=O)N[C@@H](Cc2c[nH]c3ccc(F)cc23)C(=O)N[C@@H](Cc2ccccc2)C(=O)N[C@H](C(=O)N[C@H](CCC(=O)O)C(N)=O)C(C)(C)O)NC(=O)[C@H](Cc2ccc(O)cc2)NC(=O)[C@H](C(C)C)NC(=O)[C@H](CC(=O)O)NC(=O)[C@H](C[C@H]2CC[C@@H](O)CC2)NC(=O)[C@H](CCCCNC(=O)CN2CCN(CC(=O)O)CCN(CC(=O)O)CCN(CC(=O)O)CC2)NC(=O)CNC(=O)[C@H](C(C)(C)C)NC1=O [compound 424, Ac-hLeu-Y-C-Tbg-G-Lys(DOTA)-4OHCha(pk1)-D-V-Y-C-5FW-F-hydroxyVal-dGlu-CONH2] (Ac-[hLeu]YC[Tle]GK(DOTA)[X8]DVYC[Trp(5-F)]F[Val(3-OH)][dE]-NH2; disulfide 3-11)"
3,1 to 10,"CC(=O)N[C@@H](CCC(C)C)C(=O)N[C@@H](Cc1ccc(O)cc1)C(=O)N[C@H]1CSSC[C@@H](C(=O)N[C@@H](Cc2c[nH]c3ccc(F)cc23)C(=O)N[C@@H](Cc2ccccc2)C(=O)N[C@H](C(=O)N[C@H](CCCCNC(=O)CN2CCN(CC(=O)O)CCN(CC(=O)O)CCN(CC(=O)O)CC2)C(=O)O)C(C)(C)O)NC(=O)[C@H](Cc2ccc(O)cc2)NC(=O)[C@H](C(C)C)NC(=O)[C@H](CC(=O)O)NC(=O)[C@H](CC2CCOCC2)NC(=O)[C@H](CCCCN)NC(=O)CN(C)C(=O)[C@H]([C@@H](C)O)NC1=O [compound 386, Ac-hLeu-Y-C-Thr-Sar-K-ThpA-D-V-Y-C-5FW-F-hydroxyVal-dLys(DOTA)-COOH] (Ac-[hLeu]YCT[Sar]K[Ala(4-THP)]DVYC[Trp(5-F)]F[Val(3-OH)][dK](DOTA)-OH; disulfide 3-11)"
4,1 to 10,"CC(=O)N[C@@H](CCC(C)C)C(=O)N[C@@H](Cc1ccc(O)cc1)C(=O)N[C@H]1CSSC[C@@H](C(=O)N[C@@H](Cc2c[nH]c3ccc(F)cc23)C(=O)N[C@@H](Cc2ccccc2)C(=O)N[C@H](C(=O)N[C@H](CCC(=O)O)C(N)=O)C(C)(C)O)CC(=O)[C@H](Cc2ccc(O)cc2)NC(=O)[C@H](C(C)C)NC(=O)[C@H](CC(=O)O)NC(=O)[C@H](C[C@H]2CC[C@H](O)CC2)NC(=O)[C@H](CCCCNC(=O)CN2CCN(CC(=O)O)CCN(CC(=O)O)CCN(CC(=O)O)CC2)NC(=O)CNC(=O)[C@H](C(C)(C)C)NC1=O [compound 425, Ac-hLeu-Y-C-Tbg-G-Lys(DOTA)-4OHCha(pk2)-D-V-Y-C-5FW-F-hydroxyVal-dGlu-CONH2]"
5,10 to 100,"CC(=O)N[C@@H](CCC(C)(C)C)C(=O)N[C@@H](Cc1ccc(O)cc1)C(=O)N[C@H]1CSSC[C@@H](C(=O)N[C@@H](Cc2c[nH]c3ccc(F)cc23)C(=O)N[C@@H](Cc2ccccc2)C(=O)N[C@H](C(=O)N[C@H](CCCCNC(=O)CN2CCN(CC(=O)O)CCN(CC(=O)O)CCN(CC(=O)O)CC2)C(=O)O)C(C)(C)O)NC(=O)[C@H](Cc2ccc(O)cc2)NC(=O)[C@H](C(C)C)NC(=O)[C@H](CC(=O)O)NC(=O)[C@H](CC2CCOCC2)NC(=O)[C@H](CCCCN)NC(=O)CNC(=O)[C@H](C(C)(C)C)NC1=O [compound 397, Ac-hTba-Y-C-Tbg-G-K-ThpA-D-V-Y-C-5FW-F-hydroxyVal-dLys(DOTA)-COOH] (Ac-[hLeu(5-Me)]YC[Tle]GK[Ala(4-THP)]DVYC[Trp(5-F)]F[Val(3-OH)][dK](DOTA)-OH; disulfide 3-11)"
6,100 to 300,"CCCC[C@H](NC(C)=O)C(=O)N[C@@H](Cc1ccc(O)cc1)C(=O)N[C@H]1CSSC[C@@H](C(=O)N[C@@H](Cc2c[nH]c3ccccc23)C(=O)N[C@@H](Cc2ccccc2)C(=O)N[C@@H](CCC(=O)N[C@H](CCCCNC(=O)CN2CCN(CC(=O)O)CCN(CC(=O)O)CCN(CC(=O)O)CC2)C(N)=O)C(=O)O)NC(=O)[C@H](Cc2ccc(O)cc2)NC(=O)[C@H](C(C)C)NC(=O)[C@H](CC(=O)O)NC(=O)[C@H](Cc2ccc(O)cc2)NC(=O)[C@H](CCCCN)NC(=O)CNC(=O)[C@H](C(C)C)NC1=O [compound 31, Ac-Nle-Y-C-V-G-K-Y-D-V-Y-C-W-F-gE-dLys(DOTA)-CONH2] (Ac-[Nle]YCVGKYDVYCWF[γGlu][dK](DOTA)-NH2; disulfide 3-11)"
7,1 to 10,"CC(=O)N[C@@H](CCC(C)C)C(=O)N[C@@H](Cc1ccc(O)cc1)C(=O)N[C@H]1CSSC[C@@H](C(=O)N[C@@H](Cc2c[nH]c3ccc(F)cc23)C(=O)N[C@@H](Cc2ccccc2)C(=O)N[C@H](C(=O)N[C@H](CCCCNC(=O)CN2CCN(CC(=O)O)CCN(CC(=O)O)CCN(CC(=O)O)CC2)C(=O)O)C(C)(C)O)NC(=O)[C@H](Cc2ccc(O)cc2)NC(=O)[C@H](CCO)NC(=O)[C@H](CC(=O)O)NC(=O)[C@H](CC2CCOCC2)NC(=O)[C@H](CCCCN)NC(=O)CNC(=O)[C@H](C(C)(C)C)NC1=O [compound 373, Ac-hLeu-Y-C-Tbg-G-K-ThpA-D-hSer-Y-C-5FW-F-hydroxyVal-dLys(DOTA)-COOH] (Ac-[hLeu]YC[Tle]GK[Ala(4-THP)]D[hSer]YC[Trp(5-F)]F[Val(3-OH)][dK](DOTA)-OH; disulfide 3-11)"
